Measured values published in PubChem BioAssay AID248 (DTP/NCI, 2004).
Values joined by “and” are separate entries in the source; they are usually repeats but may differ in a detail not shown here. Identical values can stand only once. Inconclusive results and toxic doses are left out. No stated cut-off is given here; in the data, active means T/C of 150% or more; inactive means T/C below 125%.

System: L1210 leukemia ip in BDF1 mice, survival T/C
Test: NCI In Vivo Anticancer Drug Screen. Data for tumor model L1210 Leukemia (intraperitoneal) in B6D2F1 (BDF1) mice
Conditions: endpoint: mean survival time, higher = longer survival
In short: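 Transplantable tumor model; survival measured in treated vs vehicle control mice. Value = treated/control.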

[1] = dose: 100.0 mg/kg/injection, schedule: Q04DX003 (ip), vehicle: saline with Tween-80
[2] = dose: 200.0 mg/kg/injection, schedule: Q04DX003 (ip), vehicle: saline with Tween-80
[3] = dose: 400.0 mg/kg/injection, schedule: Q04DX003 (ip), vehicle: saline with Tween-80
[4] = dose: 100.0 mg/kg/injection, schedule: Q04DX003 (ip), vehicle: Klucel (hydroxypropylcellulose) (HPC)
[5] = dose: 100.0 mg/kg/injection, schedule: Q01DX001 (ip), vehicle: saline
[6] = dose: 50.0 mg/kg/injection, schedule: Q01DX009 (ip), vehicle: saline with Tween-80
[7] = dose: 100.0 mg/kg/injection, schedule: Q01DX009 (ip), vehicle: saline with Tween-80
[8] = dose: 12.5 mg/kg/injection, schedule: Q01DX009 (ip), vehicle: saline
[9] = dose: 12.5 mg/kg/injection, schedule: Q04DX003 (ip), vehicle: saline
[10] = dose: 25.0 mg/kg/injection, schedule: Q01DX009 (ip), vehicle: saline
[11] = dose: 25.0 mg/kg/injection, schedule: Q04DX003 (ip), vehicle: saline
[12] = dose: 50.0 mg/kg/injection, schedule: Q04DX003 (ip), vehicle: saline
[13] = dose: 100.0 mg/kg/injection, schedule: Q01DX009 (ip), vehicle: Klucel (hydroxypropylcellulose) (HPC)
[14] = dose: 200.0 mg/kg/injection, schedule: Q01DX009 (ip), vehicle: Klucel (hydroxypropylcellulose) (HPC)
[15] = dose: 400.0 mg/kg/injection, schedule: Q01DX009 (ip), vehicle: Klucel (hydroxypropylcellulose) (HPC)
[16] = dose: 50.0 mg/kg/injection, schedule: Q01DX009 (ip), vehicle: saline
[17] = dose: 100.0 mg/kg/injection, schedule: Q01DX001 (ip), vehicle: Klucel (hydroxypropylcellulose) (HPC)
[18] = dose: 200.0 mg/kg/injection, schedule: Q01DX001 (ip), vehicle: Klucel (hydroxypropylcellulose) (HPC)

Measured: T/C

Cc1cc(Cl)c(N)[c]([Hg][I])c1F
inactive: dose: 12.0 mg/kg/injection, schedule: Q01DX001 (ip), vehicle: Klucel (hydroxypropylcellulose) (HPC) 90 % of control | dose: 25.0 mg/kg/injection, schedule: Q01DX001 (ip), vehicle: Klucel (hydroxypropylcellulose) (HPC) 86 % of control | dose: 50.0 mg/kg/injection, schedule: Q01DX001 (ip), vehicle: Klucel (hydroxypropylcellulose) (HPC) 92 % of control

O=C1OC(=O)C2C3CC(C(Br)C3Br)C12 (configuration not stated)
inactive: [1] 102 % of control | [2] 98 % of control | [3] 101 % of control

CC(C)c1ccc(/C=C/C(=O)c2ccc([N+](=O)[O-])cc2)cc1
inactive: dose: 100.0 mg/kg/injection, schedule: Q04DX002 (ip), vehicle: gum acacia 98 % of control | dose: 200.0 mg/kg/injection, schedule: Q04DX002 (ip), vehicle: gum acacia 92 % of control | dose: 400.0 mg/kg/injection, schedule: Q04DX002 (ip), vehicle: gum acacia 95 % of control

CCc1cccc[n+]1CC(=O)c1ccc(-c2ccccc2)cc1
inactive: [4] 86 % of control

C[N+]12CC3C(O)CC1CCC32 (configuration not stated)
inactive: [5] 101 % of control

c1cc(C2OCCO2)cs1
inactive: [6] 86 % of control | [7] 86 % of control

COc1ccn(C)c(=O)n1
inactive: [8] 112 % of control | [9] 110 % of control | [10] 93 % of control | [11] 91 % of control | [12] 96 % of control

CC1(N)COP(=O)(NCCCN2CCOCC2)OC1 (configuration not stated)
inactive: [5] 96 % of control | dose: 200.0 mg/kg/injection, schedule: Q01DX001 (ip), vehicle: saline 96 % of control | dose: 400.0 mg/kg/injection, schedule: Q01DX001 (ip), vehicle: saline 96 % of control

CC(NC(=O)c1cnc2ccccc2n1)C(=O)NCC(=O)O (configuration not stated)
inactive: dose: 100.0 mg/kg/injection, schedule: Q01DX001 (ip), vehicle: carboxymethylcellulose (CMC) 93 % of control | dose: 200.0 mg/kg/injection, schedule: Q01DX001 (ip), vehicle: carboxymethylcellulose (CMC) 89 % of control | dose: 400.0 mg/kg/injection, schedule: Q01DX001 (ip), vehicle: carboxymethylcellulose (CMC) 94 % of control

O=c1cc(Br)c(=O)c2cc(Br)cc(Br)c2[nH]1
inactive: dose: 25.0 mg/kg/injection, schedule: Q01DX009 (ip), vehicle: Klucel (hydroxypropylcellulose) (HPC) 95 % of control | dose: 50.0 mg/kg/injection, schedule: Q01DX009 (ip), vehicle: Klucel (hydroxypropylcellulose) (HPC) 98 % of control | [13] 90 % of control | [4] 98 % of control | [14] 87 % of control | dose: 200.0 mg/kg/injection, schedule: Q04DX003 (ip), vehicle: Klucel (hydroxypropylcellulose) (HPC) 106 % of control | [15] 89 % of control | dose: 400.0 mg/kg/injection, schedule: Q04DX003 (ip), vehicle: Klucel (hydroxypropylcellulose) (HPC) 88 % of control

CCSc1ccc2c(c1)N(CCCN1CCN(C)CC1)c1ccccc1S2
inactive: dose: 3.12 mg/kg/injection, schedule: Q01DX009 (ip), vehicle: saline 110 % of control | dose: 6.25 mg/kg/injection, schedule: Q01DX009 (ip), vehicle: saline 107 % of control | dose: 6.25 mg/kg/injection, schedule: Q04DX003 (ip), vehicle: saline 93 % of control | [8] 100 % of control | [9] 100 % of control and 101 % of control | [10] 113 % of control | [11] 96 % of control and 97 % of control and 103 % of control | [16] 98 % of control | [12] 100 % of control and 110 % of control | dose: 100.0 mg/kg/injection, schedule: Q04DX003 (ip), vehicle: saline 114 % of control and 104 % of control and 110 % of control

CN(C)CCOC(=O)c1ccccc1CBr
inactive: [10] 97 % of control | [16] 95 % of control | dose: 75.0 mg/kg/injection, schedule: Q01DX009 (ip), vehicle: saline 93 % of control

COC(=O)C(Cl)(Cl)C1(c2ccccc2)OCC(C)(C)N1C(=O)C(Cl)Cl (configuration not stated)
inactive: [1] 115 % of control | [2] 94 % of control | [3] 103 % of control

CCC(=O)Nc1cccc(OC(=O)NC(C)CC)c1 (configuration not stated)
inactive: [1] 93 % of control | [2] 97 % of control | [3] 92 % of control

CCCCCn1c(Cl)c(C(=O)O)c2ccccc21
inactive: dose: 25.0 mg/kg/injection, schedule: Q04DX003 (ip), vehicle: Klucel (hydroxypropylcellulose) (HPC) 109 % of control | dose: 50.0 mg/kg/injection, schedule: Q04DX003 (ip), vehicle: Klucel (hydroxypropylcellulose) (HPC) 97 % of control | [4] 102 % of control

S=C(SC(=S)N(C1CCCCC1)C1CCCCC1)N(C1CCCCC1)C1CCCCC1
inactive: dose: 25.0 mg/kg/injection, schedule: Q01DX009 (ip), vehicle: saline with Tween-80 92 % of control | [6] 90 % of control | [7] 86 % of control and 89 % of control

CC12CCC(=O)C=C1CCC1C2CCC2(C)C(C(=O)CC(O)(C(F)(F)F)C(F)(F)F)CCC12 (configuration not stated)
inactive: [17] 94 % of control | [18] 96 % of control | dose: 400.0 mg/kg/injection, schedule: Q01DX001 (ip), vehicle: Klucel (hydroxypropylcellulose) (HPC) 96 % of control

CSc1nc(N)nc2ncc(CN(C)c3ccc(C(=O)O)cc3)nc12
inactive: dose: 8.0 mg/kg/injection, schedule: Q01DX009 (ip), vehicle: DMSO 100 % of control | dose: 12.0 mg/kg/injection, schedule: Q01DX009 (ip), vehicle: DMSO 98 % of control | dose: 18.0 mg/kg/injection, schedule: Q01DX009 (ip), vehicle: DMSO 100 % of control | dose: 25.0 mg/kg/injection, schedule: Q01DX009 (ip), vehicle: DMSO 88 % of control | dose: 50.0 mg/kg/injection, schedule: Q01DX001 (ip), vehicle: DMSO 91 % of control

CCOC(CCl)[N+](C)(C)C (configuration not stated)
inactive: dose: 100.0 mg/kg/injection, schedule: Q04DX002 (ip), vehicle: saline 91 % of control

CC(=O)NC12CC3CC(CC(C)(C3)C1)C2
inactive: [17] 103 % of control | [18] 106 % of control

CCOc1ccc(NC(=O)CCC(=O)O)cc1
inactive: [13] 91 % of control | [14] 93 % of control | [15] 91 % of control

COc1cc(C2CC(C)=C(C)CC2C(=O)O)cc(OC)c1OC (configuration not stated)
inactive: [1] 92 % of control | [2] 97 % of control | [3] 96 % of control

C[n+]1ccc(/C=C/c2ccc(Cl)c(Cl)c2)cc1
inactive: dose: 3.0 mg/kg/injection, schedule: Q01DX009 (ip), vehicle: Klucel (hydroxypropylcellulose) (HPC) 105 % of control | dose: 6.0 mg/kg/injection, schedule: Q01DX009 (ip), vehicle: Klucel (hydroxypropylcellulose) (HPC) 93 % of control | dose: 12.0 mg/kg/injection, schedule: Q01DX009 (ip), vehicle: Klucel (hydroxypropylcellulose) (HPC) 93 % of control | dose: 12.5 mg/kg/injection, schedule: Q04DX003 (ip), vehicle: Klucel (hydroxypropylcellulose) (HPC) 104 % of control

CCCNP(=S)(NCCC)NCCC
inactive: dose: 50.0 mg/kg/injection, schedule: Q01DX001 (ip), vehicle: other 96 % of control | dose: 100.0 mg/kg/injection, schedule: Q01DX001 (ip), vehicle: other 100 % of control | dose: 200.0 mg/kg/injection, schedule: Q01DX001 (ip), vehicle: other 105 % of control | dose: 400.0 mg/kg/injection, schedule: Q01DX001 (ip), vehicle: other 100 % of control
